Measurements: patent US10072001B2, “Tank-binding kinase inhibitor compounds” (Gilead Sciences, Inc., priority 2014, dated 2018)
pIC50: −log10 of the molar value.

How the values were obtained:
[1] = target: IKKε (Homo sapiens (Human), UniProt Q14164); assay: TR-FRET kinase assay, IKKε; format: biochemical; settings: full length recombinant IKKε 0.3 nM, 2x Km ATP, 1 μM peptide, 240 min at 25° C.; geometric mean of minimum four determinations
Excerpt: Biological Assay for TBK1 and IKKs:

[2] = target: TBK1 (Homo sapiens (Human), UniProt Q9UHD2); assay: TR-FRET kinase assay, TBK1; settings: read-out: TBK1-IC50; full length recombinant TBK1 2.5 nM, 2x Km ATP, 1 μM peptide, 240 min at 25° C.; geometric mean of minimum four determinations
Chain of TBK1 (Q9UHD2 whole entry): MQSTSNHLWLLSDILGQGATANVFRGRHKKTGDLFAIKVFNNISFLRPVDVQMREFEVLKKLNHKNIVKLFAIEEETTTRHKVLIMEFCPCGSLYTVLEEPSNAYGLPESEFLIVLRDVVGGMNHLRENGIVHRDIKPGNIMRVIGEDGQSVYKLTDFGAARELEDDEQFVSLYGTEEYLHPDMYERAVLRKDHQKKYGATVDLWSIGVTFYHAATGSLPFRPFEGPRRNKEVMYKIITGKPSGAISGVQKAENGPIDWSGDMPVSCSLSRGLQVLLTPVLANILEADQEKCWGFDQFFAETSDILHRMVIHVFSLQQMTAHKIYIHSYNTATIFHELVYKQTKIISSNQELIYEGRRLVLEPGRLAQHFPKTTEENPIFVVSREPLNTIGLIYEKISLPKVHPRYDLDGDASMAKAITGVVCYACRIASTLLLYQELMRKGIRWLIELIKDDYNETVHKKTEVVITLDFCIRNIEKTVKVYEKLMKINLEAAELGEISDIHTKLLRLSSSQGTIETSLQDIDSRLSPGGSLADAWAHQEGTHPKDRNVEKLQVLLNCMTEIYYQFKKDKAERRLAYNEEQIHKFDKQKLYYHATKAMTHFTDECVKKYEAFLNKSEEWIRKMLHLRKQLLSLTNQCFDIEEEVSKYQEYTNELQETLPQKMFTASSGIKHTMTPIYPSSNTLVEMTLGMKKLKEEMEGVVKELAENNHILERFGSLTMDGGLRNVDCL

Chain of IKKε (Q14164 whole entry): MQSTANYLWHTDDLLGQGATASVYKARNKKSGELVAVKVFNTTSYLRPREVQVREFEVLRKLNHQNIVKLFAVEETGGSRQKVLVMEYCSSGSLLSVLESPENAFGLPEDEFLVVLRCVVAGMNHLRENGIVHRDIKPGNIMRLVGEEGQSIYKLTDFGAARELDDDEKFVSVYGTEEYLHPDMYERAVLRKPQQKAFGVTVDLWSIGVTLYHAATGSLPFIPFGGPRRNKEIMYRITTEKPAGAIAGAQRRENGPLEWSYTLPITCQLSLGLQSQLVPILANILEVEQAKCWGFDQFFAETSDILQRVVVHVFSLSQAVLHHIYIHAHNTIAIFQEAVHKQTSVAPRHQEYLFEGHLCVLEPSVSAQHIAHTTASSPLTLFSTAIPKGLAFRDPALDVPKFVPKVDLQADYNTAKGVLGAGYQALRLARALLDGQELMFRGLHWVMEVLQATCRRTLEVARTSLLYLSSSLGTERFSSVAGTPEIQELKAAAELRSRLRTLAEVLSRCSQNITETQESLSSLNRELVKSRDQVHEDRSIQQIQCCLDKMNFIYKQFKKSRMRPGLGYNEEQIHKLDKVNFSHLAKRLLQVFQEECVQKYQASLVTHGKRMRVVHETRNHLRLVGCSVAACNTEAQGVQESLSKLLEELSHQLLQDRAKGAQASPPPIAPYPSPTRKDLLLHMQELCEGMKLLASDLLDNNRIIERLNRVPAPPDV

Compound | pIC50 [1] | pIC50 [2]
N#Cc1cc(-c2cc3c(-c4ccc(N5CC(O)C5)c(C#N)c4)ncnc3[nH]2)ccc1N1CC(O)C1 [Example 230, 5,5′-(7H-pyrrolo[2,3-d]pyrimidine-4,6-diyl)bis(2-(3-hydroxyazetidin-1-yl)benzonitrile)] | 6.49 | 7.87
N#Cc1cc(-c2ncnc3[nH]c(-c4ccc(N5CCN(C6COC6)CC5)cc4)nc23)ccc1OC1CCOCC1 [Example 232, 5-(8-(4-(4-(oxetan-3-yl)piperazin-1-yl)phenyl)-9H-purin-6-yl)-2-((tetrahydro-2H-pyran-4-yl)oxy)benzonitrile] | 7.81 | 8.35
N#Cc1cc(-c2ccnc3[nH]c(-c4ccc(N5CCOCC5)cc4)cc23)ccc1OC1COC1 [Example 235, 5-(2-(4-morpholinophenyl)-1H-pyrrolo[2,3-b]pyridin-4-yl)-2-(oxetan-3-yloxy)benzonitrile] | 6.99 | 8.03
CC(=O)Nc1ccc(-c2cc3c(-c4ccc(OC5CCOCC5)c(C#N)c4)ccnc3[nH]2)cn1 [Example 236, N-(5-(4-(3-cyano-4-((tetrahydro-2H-pyran-4-yl)oxy)phenyl)-1H-pyrrolo[2,3-b]pyridin-2-yl)pyridin-2-yl)acetamide] | 8.10 | 7.80
N#Cc1cc(-c2ccnc3[nH]c(-c4ccc(C(=O)C(F)(F)F)cc4)cc23)ccc1OC1CCOCC1 [Example 237, 2-((tetrahydro-2H-pyran-4-yl)oxy)-5-(2-(4-(2,2,2-trifluoroacetyl)phenyl)-1H-pyrrolo[2,3-b]pyridin-4-yl)benzonitrile] | 7.53 | 7.94
N#Cc1cc(-c2ccnc3[nH]c(-c4ccc(N5CCOCC5)cc4)cc23)ccc1OC1CCCOC1 (stereo not drawn) [Example 239, 5-(2-(4-morpholinophenyl)-1H-pyrrolo[2,3-b]pyridin-4-yl)-2-((tetrahydro-2H-pyran-3-yl)oxy)benzonitrile] | 6.71 | 7.35
N#Cc1cc(-c2ncnc3[nH]c(-c4ccc(N5CCOCC5)cc4)cc23)ccc1OC1CCS(=O)(=O)CC1 [Example 240, 2-((1,1-dioxidotetrahydro-2H-thiopyran-4-yl)oxy)-5-(6-(4-morpholinophenyl)-7H-pyrrolo[2,3-d]pyrimidin-4-yl)benzonitrile] | 7.47 | 8.42
N#Cc1cc(-c2ncnc3[nH]c(-c4ccc(N5CCOCC5)c(F)c4)nc23)ccc1OC1CCN(C(=O)CO)CC1 [Example 241, 5-(8-(3-fluoro-4-morpholinophenyl)-9H-purin-6-yl)-2-((1-(2-hydroxyacetyl)piperidin-4-yl)oxy)benzonitrile] | 8.58 | 8.89
N#Cc1cc(-c2ncnc3[nH]c(-c4ccc(N5CCOCC5)c(F)c4)nc23)ccc1OC1CCOCC1 [Example 242, 5-(8-(3-fluoro-4-morpholinophenyl)-9H-purin-6-yl)-2-((tetrahydro-2H-pyran-4-yl)oxy)benzonitrile] | 6.00 | 8.48
N#Cc1cc(-c2ncnc3[nH]c(-c4ccc(N5CCOCC5)nc4)nc23)ccc1OC1CCOCC1 [Example 243, 5-(8-(6-morpholinopyridin-3-yl)-9H-purin-6-yl)-2-((tetrahydro-2H-pyran-4-yl)oxy)benzonitrile] | 6.00 | 7.94
N#Cc1cc(-c2ncnc3[nH]c(-c4ccc(N5CCOCC5)c(F)c4)nc23)ccc1OC1CCNCC1 [Example 244, 5-(8-(3-fluoro-4-morpholinophenyl)-9H-purin-6-yl)-2-(piperidin-4-yloxy)benzonitrile] | 6.82 | 7.45
CC(C)(C)OC(=O)N1CCC(Oc2ccc(-c3ncnc4[nH]c(-c5ccc(N6CCOCC6)c(F)c5)nc34)cc2C#N)CC1 [Example 245, tert-butyl 4-(2-cyano-4-(8-(3-fluoro-4-morpholinophenyl)-9H-purin-6-yl)phenoxy)piperidine-1-carboxylate] | 6.00 | 6.00
CN1CCN(c2ccc(-c3nc4c(-c5ccc(OC6CCNCC6)c(C#N)c5)ncnc4[nH]3)cc2)CC1 [Example 247, 5-(8-(4-(4-methylpiperazin-1-yl)phenyl)-9H-purin-6-yl)-2-(piperidin-4-yloxy)benzonitrile] | 7.77 | 7.95
N#Cc1cc(-c2ncnc3[nH]c(-c4ccc(CN5CCOCC5)cc4)nc23)ccc1OC1CCOCC1 [Example 252, 5-(8-(4-(morpholinomethyl)phenyl)-9H-purin-6-yl)-2-((tetrahydro-2H-pyran-4-yl)oxy)benzonitrile] | 8.31 | 8.48
CS(=O)(=O)N1CCC(Oc2ccc(-c3ncnc4[nH]c(-c5ccc(N6CCOCC6)cc5)nc34)cc2C#N)CC1 [Example 253, 2-((1-(methylsulfonyl)piperidin-4-yl)oxy)-5-(8-(4-morpholinophenyl)-9H-purin-6-yl)benzonitrile] | 7.40 | 7.70
CC1CN(c2ccc(-c3nc4c(-c5ccc(OC6CCN(C(=O)CO)CC6)c(C#N)c5)ncnc4[nH]3)cc2)CCN1CCF (stereo not drawn) [Example 256, 5-(8-(4-(4-(2-fluoroethyl)-3-methylpiperazin-1-yl)phenyl)-9H-purin-6-yl)-2-((1-(2-hydroxyacetyl)piperidin-4-yl)oxy)benzonitrile] | 8.75 | 8.62
N#Cc1cc(-c2ncnc3[nH]c(-c4ccc(N5CCOCC5)cc4)nc23)ccc1OC1CCN(S(N)(=O)=O)CC1 [Example 262, 4-(2-cyano-4-(8-(4-morpholinophenyl)-9H-purin-6-yl)phenoxy)piperidine-1-sulfonamide] | 8.37 | 8.68

The next lines start with the values.

pIC50 [1] | pIC50 [2] | Compound
8.69 | 8.48 | N#Cc1cc(-c2ncnc3[nH]c(-c4ccc(OCCN5CCCC5)cc4)nc23)ccc1OC1CCN(C(=O)CO)CC1 [Example 233, 2-((1-(2-hydroxyacetyl)piperidin-4-yl)oxy)-5-(8-(4-(2-(pyrrolidin-1-yl)ethoxy)phenyl)-9H-purin-6-yl)benzonitrile]
8.06 | 8.63 | C[C@H](O)C(=O)N1CCC(Oc2ccc(-c3ncnc4[nH]c(-c5ccc(N6CCOCC6)cc5)nc34)cc2C#N)CC1 [Example 234, (S)-2-((1-(2-hydroxypropanoyl)piperidin-4-yl)oxy)-5-(8-(4-morpholinophenyl)-9H-purin-6-yl)benzonitrile]
8.01 | 8.44 | N#Cc1cc(-c2ncnc3[nH]c(-c4ccc(N5CCOCC5)cc4)nc23)ccc1OC1CCN(C(=O)C(F)F)CC1 [Example 248, 2-((1-(2,2-difluoroacetyl)piperidin-4-yl)oxy)-5-(8-(4-morpholinophenyl)-9H-purin-6-yl)benzonitrile]
7.85 | 8.22 | CC(=O)N1CCC(Oc2ccc(-c3ncnc4[nH]c(-c5ccc(N6CCOCC6)cc5)nc34)cc2C#N)CC1 [Example 249, 2-((1-acetylpiperidin-4-yl)oxy)-5-(8-(4-morpholinophenyl)-9H-purin-6-yl)benzonitrile]
8.01 | 8.65 | N#Cc1cc(-c2ncnc3[nH]c(-c4ccc(N5CCOCC5)cc4)nc23)ccc1OC1CCN(C=O)CC1 [Example 250, 2-((1-formylpiperidin-4-yl)oxy)-5-(8-(4-morpholinophenyl)-9H-purin-6-yl)benzonitrile]
9.09 | 9.05 | CN1CCN(c2ccc(-c3nc4c(-c5ccc(OC6CCN(C(=O)CO)CC6)c(C#N)c5)ncnc4[nH]3)cc2)CC1 [Example 251, 2-((1-(2-hydroxyacetyl)piperidin-4-yl)oxy)-5-(8-(4-(4-methylpiperazin-1-yl)phenyl)-9H-purin-6-yl)benzonitrile]
8.57 | 8.37 | CN1CCN(c2ccc(-c3nc4c(-c5ccc(OC6CCN(C=O)CC6)c(C#N)c5)ncnc4[nH]3)cc2)CC1 [Example 254, 2-((1-formylpiperidin-4-yl)oxy)-5-(8-(4-(4-methylpiperazin-1-yl)phenyl)-9H-purin-6-yl)benzonitrile]
8.46 | 8.82 | N#Cc1cc(-c2ncnc3[nH]c(-c4ccc(C5CCN(CC(F)F)CC5)cc4)nc23)ccc1OC1CCN(C(=O)CO)CC1 [Example 255, 5-(8-(4-(1-(2,2-difluoroethyl)piperidin-4-yl)phenyl)-9H-purin-6-yl)-2-((1-(2-hydroxyacetyl)piperidin-4-yl)oxy)benzonitrile]
7.86 | 8.42 | N#Cc1cc(-c2ncnc3[nH]c(-c4ccc(C5CCN(CC(F)(F)F)CC5)cc4)nc23)ccc1OC1CCN(C(=O)CO)CC1 [Example 257, 2-((1-(2-hydroxyacetyl)piperidin-4-yl)oxy)-5-(8-(4-(1-(2,2,2-trifluoroethyl)piperidin-4-yl)phenyl)-9H-purin-6-yl)benzonitrile]
7.89 | 8.19 | N#Cc1cc(-c2ncnc3[nH]c(-c4ccc(C5CCN(CC(F)F)CC5)cc4)nc23)ccc1OC1CCN(C=O)CC1 [Example 258, 5-(8-(4-(1-(2,2-difluoroethyl)piperidin-4-yl)phenyl)-9H-purin-6-yl)-2-((1-formylpiperidin-4-yl)oxy)benzonitrile]
7.34 | 7.91 | N#Cc1cc(-c2ncnc3[nH]c(-c4ccc(C5CCN(CC(F)(F)F)CC5)cc4)nc23)ccc1OC1CCN(C=O)CC1 [Example 259, 2-((1-formylpiperidin-4-yl)oxy)-5-(8-(4-(1-(2,2,2-trifluoroethyl)piperidin-4-yl)phenyl)-9H-purin-6-yl)benzonitrile]
7.07 | 7.58 | N#Cc1cc(-c2ncnc3[nH]c(-c4ccc(C5CCN(CC(F)F)CC5)cc4)nc23)ccc1OC1CCNCC1 [Example 260, 5-(8-(4-(1-(2,2-difluoroethyl)piperidin-4-yl)phenyl)-9H-purin-6-yl)-2-(piperidin-4-yloxy)benzonitrile]
7.02 | 7.43 | N#Cc1cc(-c2ncnc3[nH]c(-c4ccc(C5CCN(CC(F)(F)F)CC5)cc4)nc23)ccc1OC1CCNCC1 [Example 261, 2-(piperidin-4-yloxy)-5-(8-(4-(1-(2,2,2-trifluoroethyl)piperidin-4-yl)phenyl)-9H-purin-6-yl)benzonitrile]
